Tests used:
Assay in all cases: DSF 100 kinase selectivity screen;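 further: compound tested at 20 µM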
Format in all cases: binding
[1] = target: T1, ~100 representative kinases (Homo sapiens, UniProt P54764); conditions: Protein EPHA4; average of three replicates
T1 construct: Recombinant protein kinase domains with a concentration of 2 μM
Summary of the method: (§1)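 Each kinase domain, at 2 μM, is mixed with 20 μM test compound and SYPRO Orange in Hepes (20 mM, pH 7.5) with 500 mM NaCl. Temperature is then raised at 3°C/min and fluorescence-monitored unfolding yields the melting temperature change, ΔTm in degrees Celsius.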

[2] = target: T2, ~100 representative kinases (Homo sapiens, UniProt P48730); conditions: Protein CSNK1D; average of three replicates
T2 construct: Recombinant protein kinase domains with a concentration of 2 μM
Summary of the method: as §1

[3] = target: T3, ~100 representative kinases (Homo sapiens, UniProt Q8TD08); conditions: protein MAPK15; average of three replicates
T3 construct: Recombinant protein kinase domains with a concentration of 2 μM
T3 sequence (Q8TD08 1-544): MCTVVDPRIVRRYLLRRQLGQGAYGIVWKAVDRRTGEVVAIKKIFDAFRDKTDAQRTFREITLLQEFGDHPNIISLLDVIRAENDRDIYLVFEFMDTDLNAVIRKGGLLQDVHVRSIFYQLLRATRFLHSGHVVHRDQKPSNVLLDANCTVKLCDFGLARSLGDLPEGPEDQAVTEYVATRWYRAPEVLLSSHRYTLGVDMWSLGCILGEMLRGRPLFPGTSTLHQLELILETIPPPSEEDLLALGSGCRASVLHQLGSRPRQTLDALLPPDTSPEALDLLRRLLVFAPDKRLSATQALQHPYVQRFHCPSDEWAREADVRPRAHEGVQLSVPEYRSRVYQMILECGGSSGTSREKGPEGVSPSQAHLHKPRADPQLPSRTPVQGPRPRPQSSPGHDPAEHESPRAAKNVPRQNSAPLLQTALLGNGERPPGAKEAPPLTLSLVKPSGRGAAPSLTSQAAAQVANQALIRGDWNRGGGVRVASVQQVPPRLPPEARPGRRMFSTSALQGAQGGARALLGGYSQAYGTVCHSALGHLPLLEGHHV
Summary of the method: as §1

[4] = target: T4, ~100 representative kinases (Homo sapiens, UniProt Q99683); conditions: protein MAP3K5; average of three replicates
T4 construct: Recombinant protein kinase domains with a concentration of 2 μM
T4 sequence (Q99683 1-1374): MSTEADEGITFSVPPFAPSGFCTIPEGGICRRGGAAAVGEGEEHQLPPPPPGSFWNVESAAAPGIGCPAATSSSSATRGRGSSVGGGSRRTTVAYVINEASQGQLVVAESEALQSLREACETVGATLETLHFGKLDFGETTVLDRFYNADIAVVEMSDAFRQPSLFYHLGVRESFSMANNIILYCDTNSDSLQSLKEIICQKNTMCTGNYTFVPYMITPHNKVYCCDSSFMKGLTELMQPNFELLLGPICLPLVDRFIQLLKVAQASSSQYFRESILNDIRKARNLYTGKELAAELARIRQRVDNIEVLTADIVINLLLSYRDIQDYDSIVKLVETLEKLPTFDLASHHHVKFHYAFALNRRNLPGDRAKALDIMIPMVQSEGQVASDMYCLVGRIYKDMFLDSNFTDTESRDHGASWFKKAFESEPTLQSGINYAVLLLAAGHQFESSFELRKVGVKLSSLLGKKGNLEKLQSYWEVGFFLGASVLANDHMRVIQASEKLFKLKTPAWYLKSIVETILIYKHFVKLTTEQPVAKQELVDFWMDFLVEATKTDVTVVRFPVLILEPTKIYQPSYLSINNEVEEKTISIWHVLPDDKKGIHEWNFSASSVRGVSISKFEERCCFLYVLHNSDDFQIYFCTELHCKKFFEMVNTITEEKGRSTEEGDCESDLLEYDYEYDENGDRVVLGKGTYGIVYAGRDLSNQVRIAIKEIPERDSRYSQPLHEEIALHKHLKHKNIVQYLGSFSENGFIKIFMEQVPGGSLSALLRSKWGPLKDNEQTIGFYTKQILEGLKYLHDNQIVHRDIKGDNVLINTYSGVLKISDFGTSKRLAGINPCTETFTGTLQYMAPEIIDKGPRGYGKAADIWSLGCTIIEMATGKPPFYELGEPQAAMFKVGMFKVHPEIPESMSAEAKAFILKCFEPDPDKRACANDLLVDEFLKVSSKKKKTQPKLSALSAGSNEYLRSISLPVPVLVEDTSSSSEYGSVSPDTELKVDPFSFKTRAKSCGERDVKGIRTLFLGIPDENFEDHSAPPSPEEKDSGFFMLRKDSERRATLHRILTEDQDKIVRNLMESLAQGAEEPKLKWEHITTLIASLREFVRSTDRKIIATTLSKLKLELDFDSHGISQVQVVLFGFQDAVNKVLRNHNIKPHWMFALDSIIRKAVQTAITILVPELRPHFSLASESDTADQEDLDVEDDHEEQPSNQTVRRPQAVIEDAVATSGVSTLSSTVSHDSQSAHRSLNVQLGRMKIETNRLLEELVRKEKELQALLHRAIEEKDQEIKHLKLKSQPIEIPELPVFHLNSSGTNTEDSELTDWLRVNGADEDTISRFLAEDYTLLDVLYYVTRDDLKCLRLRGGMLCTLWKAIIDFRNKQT
Summary of the method: as §1

[5] = target: T5, ~100 representative kinases (Homo sapiens, UniProt Q6PHR2); conditions: Protein ULK3; DSF; average of three replicates
T5 construct: Recombinant protein kinase domains with a concentration of 2 μM
T5 sequence (Q6PHR2 1-472): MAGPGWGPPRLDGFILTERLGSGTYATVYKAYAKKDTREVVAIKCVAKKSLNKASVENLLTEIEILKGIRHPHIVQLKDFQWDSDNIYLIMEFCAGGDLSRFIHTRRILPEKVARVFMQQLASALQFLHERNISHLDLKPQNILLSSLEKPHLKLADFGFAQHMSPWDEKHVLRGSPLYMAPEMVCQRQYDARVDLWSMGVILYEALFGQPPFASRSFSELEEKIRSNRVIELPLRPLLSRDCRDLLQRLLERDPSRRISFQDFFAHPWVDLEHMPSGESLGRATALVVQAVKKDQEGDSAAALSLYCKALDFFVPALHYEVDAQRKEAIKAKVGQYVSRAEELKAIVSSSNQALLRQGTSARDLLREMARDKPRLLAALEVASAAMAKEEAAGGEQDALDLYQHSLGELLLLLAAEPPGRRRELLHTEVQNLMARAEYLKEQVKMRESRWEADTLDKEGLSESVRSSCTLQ
Summary of the method: as §1

[6] = target: T6, ~100 representative kinases (Homo sapiens, UniProt P21675); conditions: Protein TAF1; DSF; average of three replicates
T6 construct: Recombinant protein kinase domains with a concentration of 2 μM
Summary of the method: as §1

[7] = target: T7, ~100 representative kinases (Homo sapiens, UniProt P49759); conditions: Protein CLK1; average of three replicates
T7 construct: Recombinant protein kinase domains with a concentration of 2 μM
Summary of the method: as §1

T2 sequence (P48730 whole entry, the tested form may be a part): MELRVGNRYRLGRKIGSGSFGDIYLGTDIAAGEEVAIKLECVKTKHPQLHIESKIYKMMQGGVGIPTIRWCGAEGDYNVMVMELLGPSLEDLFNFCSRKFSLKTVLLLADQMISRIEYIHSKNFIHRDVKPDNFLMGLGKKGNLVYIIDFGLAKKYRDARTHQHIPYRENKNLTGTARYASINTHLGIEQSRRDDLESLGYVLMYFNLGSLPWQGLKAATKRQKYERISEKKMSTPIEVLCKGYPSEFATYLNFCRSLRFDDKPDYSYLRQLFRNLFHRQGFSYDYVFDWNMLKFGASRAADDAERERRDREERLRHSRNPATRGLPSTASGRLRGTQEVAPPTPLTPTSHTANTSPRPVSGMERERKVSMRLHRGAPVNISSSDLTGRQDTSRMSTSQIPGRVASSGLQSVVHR
T6 sequence (P21675 whole entry, the tested form may be a part): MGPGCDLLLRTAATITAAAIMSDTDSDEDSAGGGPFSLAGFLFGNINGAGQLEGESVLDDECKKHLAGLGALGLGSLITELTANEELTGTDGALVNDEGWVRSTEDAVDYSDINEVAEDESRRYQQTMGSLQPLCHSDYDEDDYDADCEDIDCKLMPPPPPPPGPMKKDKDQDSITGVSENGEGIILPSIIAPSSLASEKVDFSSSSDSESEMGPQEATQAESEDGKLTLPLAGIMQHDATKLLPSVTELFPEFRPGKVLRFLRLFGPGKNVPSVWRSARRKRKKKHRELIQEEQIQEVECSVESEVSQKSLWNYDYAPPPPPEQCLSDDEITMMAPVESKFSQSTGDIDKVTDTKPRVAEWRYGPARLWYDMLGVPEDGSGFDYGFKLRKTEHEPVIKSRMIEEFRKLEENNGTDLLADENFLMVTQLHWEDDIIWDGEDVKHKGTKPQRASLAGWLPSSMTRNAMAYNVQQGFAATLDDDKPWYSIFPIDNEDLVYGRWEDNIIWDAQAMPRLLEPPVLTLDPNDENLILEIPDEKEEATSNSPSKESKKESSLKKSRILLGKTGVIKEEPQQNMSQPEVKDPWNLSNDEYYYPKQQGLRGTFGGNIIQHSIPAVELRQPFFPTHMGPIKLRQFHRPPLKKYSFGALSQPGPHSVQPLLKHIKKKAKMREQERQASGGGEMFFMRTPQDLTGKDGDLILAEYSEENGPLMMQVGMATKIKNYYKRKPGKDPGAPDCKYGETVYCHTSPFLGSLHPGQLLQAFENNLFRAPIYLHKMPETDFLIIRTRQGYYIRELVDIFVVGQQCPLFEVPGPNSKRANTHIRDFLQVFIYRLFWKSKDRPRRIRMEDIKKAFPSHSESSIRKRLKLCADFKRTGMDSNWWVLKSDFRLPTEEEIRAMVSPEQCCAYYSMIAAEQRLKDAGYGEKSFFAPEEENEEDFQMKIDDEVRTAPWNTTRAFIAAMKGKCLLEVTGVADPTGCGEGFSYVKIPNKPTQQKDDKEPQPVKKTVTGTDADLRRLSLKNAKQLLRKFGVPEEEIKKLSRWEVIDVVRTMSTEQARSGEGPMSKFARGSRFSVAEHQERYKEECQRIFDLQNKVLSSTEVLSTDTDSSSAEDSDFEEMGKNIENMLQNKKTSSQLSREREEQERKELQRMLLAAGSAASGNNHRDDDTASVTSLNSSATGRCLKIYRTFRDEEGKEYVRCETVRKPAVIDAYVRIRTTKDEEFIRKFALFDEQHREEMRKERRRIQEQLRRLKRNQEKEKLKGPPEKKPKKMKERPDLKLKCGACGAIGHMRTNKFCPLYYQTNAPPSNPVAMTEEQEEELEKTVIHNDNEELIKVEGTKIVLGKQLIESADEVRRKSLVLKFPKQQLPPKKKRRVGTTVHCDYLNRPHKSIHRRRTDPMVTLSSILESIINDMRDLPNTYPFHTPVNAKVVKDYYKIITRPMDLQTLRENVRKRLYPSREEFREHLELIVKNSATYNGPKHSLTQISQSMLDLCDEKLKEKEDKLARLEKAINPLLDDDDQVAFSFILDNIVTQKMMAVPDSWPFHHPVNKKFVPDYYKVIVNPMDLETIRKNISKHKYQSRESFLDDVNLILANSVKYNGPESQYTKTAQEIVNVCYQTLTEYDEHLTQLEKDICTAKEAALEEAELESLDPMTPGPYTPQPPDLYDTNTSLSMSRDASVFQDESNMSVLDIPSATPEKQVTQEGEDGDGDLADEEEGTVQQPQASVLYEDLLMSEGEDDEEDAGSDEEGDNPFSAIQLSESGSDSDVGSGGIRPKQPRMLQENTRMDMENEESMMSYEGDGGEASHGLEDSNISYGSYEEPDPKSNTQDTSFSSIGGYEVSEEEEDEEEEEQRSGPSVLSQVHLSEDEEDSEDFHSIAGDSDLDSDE
T7 sequence (P49759 whole entry, the tested form may be a part): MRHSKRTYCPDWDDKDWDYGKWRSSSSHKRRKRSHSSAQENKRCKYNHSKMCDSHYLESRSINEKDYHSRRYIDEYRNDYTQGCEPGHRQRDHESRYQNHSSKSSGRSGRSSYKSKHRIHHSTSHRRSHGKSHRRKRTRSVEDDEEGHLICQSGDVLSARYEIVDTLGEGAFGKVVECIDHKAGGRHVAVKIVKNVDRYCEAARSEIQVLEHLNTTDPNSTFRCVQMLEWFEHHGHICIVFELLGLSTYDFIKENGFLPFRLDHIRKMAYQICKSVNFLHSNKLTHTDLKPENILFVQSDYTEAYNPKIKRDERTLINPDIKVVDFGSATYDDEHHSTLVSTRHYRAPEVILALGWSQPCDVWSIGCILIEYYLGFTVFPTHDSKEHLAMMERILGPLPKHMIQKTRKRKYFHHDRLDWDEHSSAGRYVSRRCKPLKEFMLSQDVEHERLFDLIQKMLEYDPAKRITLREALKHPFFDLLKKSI
T1 sequence (P54764 20-986): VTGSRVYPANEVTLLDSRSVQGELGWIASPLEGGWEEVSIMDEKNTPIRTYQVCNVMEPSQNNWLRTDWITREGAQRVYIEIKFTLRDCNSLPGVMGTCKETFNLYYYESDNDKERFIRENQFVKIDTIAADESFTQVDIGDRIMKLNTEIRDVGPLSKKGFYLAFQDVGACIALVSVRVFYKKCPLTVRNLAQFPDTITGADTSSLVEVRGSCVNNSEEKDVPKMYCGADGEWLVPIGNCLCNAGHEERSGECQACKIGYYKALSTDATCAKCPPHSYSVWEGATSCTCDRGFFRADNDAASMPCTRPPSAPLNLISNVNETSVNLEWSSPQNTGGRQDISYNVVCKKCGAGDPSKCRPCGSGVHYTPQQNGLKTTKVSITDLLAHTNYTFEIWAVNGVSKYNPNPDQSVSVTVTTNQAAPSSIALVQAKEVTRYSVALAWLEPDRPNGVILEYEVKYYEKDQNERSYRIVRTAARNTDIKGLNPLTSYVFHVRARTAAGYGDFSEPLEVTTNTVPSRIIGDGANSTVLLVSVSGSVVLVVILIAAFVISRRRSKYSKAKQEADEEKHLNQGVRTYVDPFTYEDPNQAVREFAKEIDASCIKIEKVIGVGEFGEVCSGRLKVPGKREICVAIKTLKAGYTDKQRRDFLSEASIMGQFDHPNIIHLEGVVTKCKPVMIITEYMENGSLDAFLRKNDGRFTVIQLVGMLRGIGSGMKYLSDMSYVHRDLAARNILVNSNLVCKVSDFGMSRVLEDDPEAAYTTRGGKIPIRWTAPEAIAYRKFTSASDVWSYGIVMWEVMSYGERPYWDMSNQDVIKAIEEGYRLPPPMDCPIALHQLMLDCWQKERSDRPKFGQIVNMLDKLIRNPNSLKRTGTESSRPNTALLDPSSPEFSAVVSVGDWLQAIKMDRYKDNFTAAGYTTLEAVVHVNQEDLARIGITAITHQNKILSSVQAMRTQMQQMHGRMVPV

dTm [1]: 3.23 K
dTm [2]: 3.49 K
dTm [4]: 4.77 K
dTm [5]: 10.21 K
dTm [6]: 0.99 K
dTm [7]: 11.22 K
SMILES: Cc1cc(NC(=O)C2(C(=O)Nc3cccc(-c4c[nH]c5ncnc(N6CCOCC6)c45)c3)CC2)ccc1F [Compound 20]
dTm [3]: 12.42 K

— publication PMC12136037, “Type II kinase inhibitors that target Parkinson’s disease–associated LRRK2” (Science Advances, 2025)
